Among the data in PubChem BioAssay (NCI) are TGI values, retold here.

Common to all, as to assay: NCI anticancer screen, dose series, 48 h
Experiment [1] concerns HCC-2998 colon.
The test system of experiment [2] is OVCAR-4 ovarian.
Experiment [3] has as its system SF-295 CNS.
Experiment [4] has as its system HL-60(TB) leukemia.
The subject of experiment [5] is RXF 393 renal.
In experiment [6] the test system is MALME-3M melanoma.
The test system of experiment [7] is NCI-H460 lung.
Experiment [8] concerns LOX IMVI melanoma.
Experiment [9] concerns OVCAR-8 ovarian.
Experiment [10] deals with U251 CNS.

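Dose response: 5 concentrations. Exposure: 48 h. Format: 96-well plates. Endpoint: linear interpolation; highest concentration if not reached. TGI is the concentration that stops growth completely.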

In the case of `NC(=Nc1ccc(O)cc1)S(=O)(=O)O`, the TGI in experiment [1], in experiment [2], in [3], in [4], in experiment [5] and in experiment [6] was above 100 µM throughout. Besides, the TGI in [7], in experiment [8], in [9] and in experiment [10] was above 100 µM throughout.
For `O=C1/C(=C\c2cccc(Oc3ccccc3)c2)S(=O)(=O)C(c2ccccc2)N1c1ccccc1Cl` (stereo not given), the TGI was above 100 µM in experiment [1]; 98.1 µM in experiment [2]; above 100 µM in [3]; 33.6 µM in experiment [4]; above 100 µM in experiment [5]; above 100 µM in experiment [6]. The TGI in [7], in experiment [8], in experiment [9] and in [10] was above 100 µM in each case.
As to `CN(C)c1nc(NC23CC4CC(CC(C4)C2)C3)nc(N(C)C)n1`, the TGI was 97.1 µM in [1]; above 100 µM in experiment [2]; above 33.3 µM in [3]; 13.5 µM in experiment [4]; 17.7 µM in [5]; above 71.5 µM in [6]. The TGI was above 100 µM in experiment [7], 17.8 µM in experiment [8], above 100 µM in experiment [9] and above 55.3 µM in [10].
As to `O=c1[nH]nc(-c2ccccc2)n1/N=C/c1c[nH]c2ccccc12`, the TGI in experiment [1], in experiment [2], in [3], in [4], in experiment [5] and in experiment [6] was above 100 µM throughout. The TGI in experiment [7], in experiment [8], in experiment [9] and in experiment [10] was above 100 µM throughout.
Regarding `NNc1nc2ccccc2c(=O)n1NC(=O)C(=O)Nc1cccc(C(F)(F)F)c1`, the TGI in [1], in experiment [2], in [3], in experiment [4], in [5] and in experiment [6] was above 100 µM throughout. For the same molecule, the TGI in experiment [7], in [8], in experiment [9] and in experiment [10] was above 100 µM in each case.
With `O=[N+]([O-])/C(C(Cl)=C(Cl)Cl)=C1\NCCO1`, the TGI in [1], in experiment [2], in experiment [3], in [4], in [5] and in experiment [6] was above 100 µM in each case. The TGI in [7], in experiment [8], in [9] and in experiment [10] was above 100 µM throughout.
Turning to `O=c1[nH]nc(-c2ccccc2)n1/N=C/c1ccncc1`, the TGI in [1], in experiment [2], in [3], in [4], in experiment [5] and in [6] was above 100 µM each time. The TGI in [7], in [8], in experiment [9] and in [10] was above 100 µM in each case.
As to `Cc1ccc(OCC2OC(n3cnc4nc(Cl)nc(Cl)c43)CC2Oc2ccc(C)cc2)cc1` (stereo not given), the TGI in experiment [1] came out at 12.2 µM; in experiment [2], 56.1 µM; in experiment [3], 30.6 µM; in [4], 3.94 µM; in [5], 15.7 µM; in experiment [6], 33.9 µM. The TGI stood at 20.2 µM in [7], 3.45 µM in experiment [8], 59.5 µM in experiment [9] and 55.5 µM in [10].
Take `O=C1Sc2ccc(Br)cc2C(=O)Sc2ccccc21`: the TGI was found to be 29.6 µM in experiment [1]; 29.8 µM in experiment [2]; 57.5 µM in [3]; 9.71 µM in experiment [4]; 12.4 µM in experiment [5]; 23.6 µM in experiment [6]. The TGI in experiment [7] worked out at 34 µM; in experiment [8], 25.3 µM; in [9] it was 24 µM; in experiment [10], 27.6 µM.
Regarding `O=C1O/C(=C(\Br)c2cccc3ccccc23)c2ccccc21`, the TGI is above 100 µM in [1]; 30.9 µM in [2]; above 53.6 µM in experiment [3]; 47.7 µM in experiment [4]; above 62.8 µM in experiment [5]; above 60.6 µM in experiment [6]. In addition, the TGI is above 73 µM in experiment [7], above 100 µM in experiment [8], above 62.3 µM in experiment [9] and above 100 µM in experiment [10].
Regarding `CCOC(=O)N1CCN(c2ccc3c(C)cc(C)nc3n2)CC1`, the TGI in experiment [1], in [2], in [3], in experiment [4], in experiment [5] and in experiment [6] was above 100 µM in each case. In addition, the TGI in [7], in experiment [8], in experiment [9] and in experiment [10] was above 100 µM each time.
